Test results as given in patent publication US10421778B2, “Isoform-selective lysine deacetylase inhibitors” (WASHINGTON UNIVERSITY, priority 2015, dated 2019).
Positions of bridges follow the written chain, without caps; N, C: chain ends. Non-standard residues stand in square brackets, D forms with d. Residues, ends and D or L forms follow the SMILES beside them. *: point of attachment. GABA = NCCCC(=O)O; NHOH = ON*

Tests used:
Assay in all cases: KDAC inhibition assay, Caliper EZ Reader II
Type in all cases: biochemical
recombinant human KDAC3 = molecular target: T1, recombinant human KDAC3 (Homo sapiens, UniProt O15379); conditions: for IC50: 10-point dose curve from 30 μM, read-out: KDAC Inhibition Activity (IC50) KDAC3; for KDAC Inhibition Activity KDAC3 (% inhibition): % inhibition at 30 μM
T1 construct: purchased BPS Bioscience
T1 sequence (O15379 whole entry): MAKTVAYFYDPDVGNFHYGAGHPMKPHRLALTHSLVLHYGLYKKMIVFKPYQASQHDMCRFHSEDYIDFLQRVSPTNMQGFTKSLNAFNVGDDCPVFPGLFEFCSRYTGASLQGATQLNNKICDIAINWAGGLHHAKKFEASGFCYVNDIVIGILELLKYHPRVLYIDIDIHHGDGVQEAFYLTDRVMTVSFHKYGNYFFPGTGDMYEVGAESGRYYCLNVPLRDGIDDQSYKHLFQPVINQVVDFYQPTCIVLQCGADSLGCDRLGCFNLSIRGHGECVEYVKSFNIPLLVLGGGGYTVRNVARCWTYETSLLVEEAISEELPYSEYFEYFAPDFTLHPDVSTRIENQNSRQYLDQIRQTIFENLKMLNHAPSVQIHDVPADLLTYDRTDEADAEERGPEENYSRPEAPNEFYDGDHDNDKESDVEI
T1 sequence (Q9Y618 395-489 partner limits assumed): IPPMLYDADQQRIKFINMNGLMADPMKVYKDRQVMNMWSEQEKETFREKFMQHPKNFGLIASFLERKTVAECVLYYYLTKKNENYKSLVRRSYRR

recombinant human KDAC1 = molecular target: T2, recombinant human KDAC1 (Homo sapiens, UniProt Q13547); conditions: for IC50: 10-point dose curve from 30 μM; for KDAC Inhibition Activity KDAC1 (% inhibition): % inhibition at 30 μM
T2 construct: purchased BPS Bioscience
T2 sequence (Q13547 whole entry): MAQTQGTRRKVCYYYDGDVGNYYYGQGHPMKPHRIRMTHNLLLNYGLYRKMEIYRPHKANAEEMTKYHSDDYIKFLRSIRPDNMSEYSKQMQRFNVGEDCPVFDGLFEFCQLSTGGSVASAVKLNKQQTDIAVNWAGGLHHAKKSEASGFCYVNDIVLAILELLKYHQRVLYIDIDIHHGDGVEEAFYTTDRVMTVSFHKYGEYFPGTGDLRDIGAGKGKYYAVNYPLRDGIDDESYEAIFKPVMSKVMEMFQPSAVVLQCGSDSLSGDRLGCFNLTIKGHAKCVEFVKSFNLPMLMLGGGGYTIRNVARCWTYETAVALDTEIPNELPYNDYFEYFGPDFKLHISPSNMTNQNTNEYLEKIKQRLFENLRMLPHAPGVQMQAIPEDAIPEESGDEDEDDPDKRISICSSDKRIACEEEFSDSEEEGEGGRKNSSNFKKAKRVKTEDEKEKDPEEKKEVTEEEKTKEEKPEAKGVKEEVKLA

recombinant human KDAC8 = molecular target: T3, recombinant human KDAC8 (Homo sapiens, UniProt Q9BY41); conditions: for KDAC Inhibition Activity KDAC8 (% inhibition): % inhibition at 30 μM
T3 construct: purchased BPS Bioscience
T3 sequence (Q9BY41 1-377): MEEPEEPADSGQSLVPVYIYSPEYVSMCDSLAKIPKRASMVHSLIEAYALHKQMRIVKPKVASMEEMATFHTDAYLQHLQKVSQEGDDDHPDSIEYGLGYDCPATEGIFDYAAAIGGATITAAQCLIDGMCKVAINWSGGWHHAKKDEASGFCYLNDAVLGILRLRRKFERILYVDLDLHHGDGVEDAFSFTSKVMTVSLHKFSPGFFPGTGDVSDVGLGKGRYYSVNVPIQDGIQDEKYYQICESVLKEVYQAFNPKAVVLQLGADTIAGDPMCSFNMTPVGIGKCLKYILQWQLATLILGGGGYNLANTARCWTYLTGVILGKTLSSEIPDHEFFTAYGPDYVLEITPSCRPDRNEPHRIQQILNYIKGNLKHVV

recombinant human KDAC6 = molecular target: T4, recombinant human KDAC6 (Homo sapiens, UniProt Q9UBN7); conditions: for KDAC Inhibition Activity KDAC6 (% inhibition): % inhibition at 30 μM
T4 construct: purchased BPS Bioscience
T4 sequence (Q9UBN7 1-1215): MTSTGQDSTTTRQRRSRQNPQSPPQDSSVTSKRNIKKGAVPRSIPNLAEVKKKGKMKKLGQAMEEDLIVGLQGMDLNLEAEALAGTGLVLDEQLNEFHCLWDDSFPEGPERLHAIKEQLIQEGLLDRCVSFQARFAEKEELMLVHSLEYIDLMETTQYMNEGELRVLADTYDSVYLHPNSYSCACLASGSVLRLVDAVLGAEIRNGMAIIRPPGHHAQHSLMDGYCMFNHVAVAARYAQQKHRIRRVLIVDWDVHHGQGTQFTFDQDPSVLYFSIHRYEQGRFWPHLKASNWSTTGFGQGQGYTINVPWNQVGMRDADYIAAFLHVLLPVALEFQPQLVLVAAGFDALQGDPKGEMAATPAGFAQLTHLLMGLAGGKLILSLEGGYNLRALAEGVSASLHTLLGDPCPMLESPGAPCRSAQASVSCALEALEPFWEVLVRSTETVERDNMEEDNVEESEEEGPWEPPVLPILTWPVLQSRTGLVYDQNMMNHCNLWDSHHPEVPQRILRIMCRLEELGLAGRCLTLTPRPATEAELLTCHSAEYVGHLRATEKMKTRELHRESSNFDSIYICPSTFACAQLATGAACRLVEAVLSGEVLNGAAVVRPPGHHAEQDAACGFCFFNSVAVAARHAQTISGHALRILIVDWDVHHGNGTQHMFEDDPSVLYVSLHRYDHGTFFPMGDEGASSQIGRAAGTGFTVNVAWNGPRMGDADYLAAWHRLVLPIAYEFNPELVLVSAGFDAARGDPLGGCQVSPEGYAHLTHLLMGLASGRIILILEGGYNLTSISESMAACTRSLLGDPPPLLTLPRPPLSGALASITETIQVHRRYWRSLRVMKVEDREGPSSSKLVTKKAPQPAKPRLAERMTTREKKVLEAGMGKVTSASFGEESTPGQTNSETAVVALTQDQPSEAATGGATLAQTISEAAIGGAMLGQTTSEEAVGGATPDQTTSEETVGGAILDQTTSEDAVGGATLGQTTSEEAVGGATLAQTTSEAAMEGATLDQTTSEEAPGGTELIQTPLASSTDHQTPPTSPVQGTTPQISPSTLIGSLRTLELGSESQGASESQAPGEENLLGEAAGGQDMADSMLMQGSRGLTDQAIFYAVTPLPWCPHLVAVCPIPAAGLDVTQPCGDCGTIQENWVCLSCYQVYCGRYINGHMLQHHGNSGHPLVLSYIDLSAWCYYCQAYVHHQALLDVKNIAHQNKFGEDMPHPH

CC(C)[C@@H]1NC(=O)[C@@H]2CCCN2C(=O)[C@H]2CCCN2C(=O)C[C@@H](C(=O)O)NC1=O [Compound 3a, Cyclo-Asp(^DPro-Pro-Val)-OH] ([dP]PVD-OH; lactam N-4)
inhibition at 30 µM (recombinant human KDAC3): 1%

CC(C)[C@@H]1NC(=O)[C@@H]2CCCN2C(=O)[C@H]2CCCN2C(=O)C[C@H](C(=O)O)NC1=O [Compound 3b, Cyclo-^DAsp(^DPro-Pro-Val)-OH] ([dP]PV[dD]-OH; lactam N-4)
inhibition at 30 µM (recombinant human KDAC1): 2.5%
inhibition at 30 µM (recombinant human KDAC3): 3%

CC(C)[C@@H]1NC(=O)[C@@H]2CCCN2C(=O)[C@H]2CCCN2C(=O)C[C@@H](C(=O)NCCCC(=O)NO)NC1=O [Compound 14a, Cyclo-Asp(^DPro-Pro-Val)-NHCH2CH2CH2CONHOH] ([dP]PVD[GABA]-{NHOH}; lactam N-4)
inhibition at 30 µM (recombinant human KDAC8): 31%
inhibition at 30 µM (recombinant human KDAC1): 4.5%
inhibition at 30 µM (recombinant human KDAC6): 82%
inhibition at 30 µM (recombinant human KDAC3): 67%

CC(C)[C@@H]1NC(=O)[C@H]2CCCN2C(=O)[C@@H]2CCCN2C(=O)C[C@@H](C(=O)NCCCC(=O)NO)NC1=O [Compound 25a, Cyclo-Asp(Pro-^DPro-Val)-NHCH2CH2CH2CONHOH] (P[dP]VD[GABA]-{NHOH}; lactam N-4)
inhibition at 30 µM (recombinant human KDAC8): 34%
IC50 (recombinant human KDAC8; 10-point dose curve from 30 μM): > 30 µM
inhibition at 30 µM (recombinant human KDAC1): 25%
IC50 (recombinant human KDAC1): > 30 µM
inhibition at 30 µM (recombinant human KDAC6): 80%
inhibition at 30 µM (recombinant human KDAC3): 45%
IC50 (recombinant human KDAC3): > 30 µM

Nc1ccccc1NC(=O)c1ccc(-c2cn(CCc3ccsc3)nn2)cc1 [Compound T247, N-(2-Aminophenyl)-4-[1-(2-thiophen-3-ylethyl)-1H-[1,2,3]triazol-4-yl]benzamide, reference compound]
IC50 (recombinant human KDAC1): 1.11 µM
IC50 (recombinant human KDAC3): 3.94 µM

Cyclo-Asp(Pro-^DPro-Val)-NHCH2CH2CH2COOH [Compound 24a]
KDAC Inhibition Activity KDAC8 (% inhibition) (recombinant human KDAC8): 36%
KDAC Inhibition Activity KDAC1 (% inhibition) (recombinant human KDAC1): 4%
KDAC Inhibition Activity KDAC6 (% inhibition) (recombinant human KDAC6): Not active
KDAC Inhibition Activity KDAC3 (% inhibition) (recombinant human KDAC3): 8%

Cyclo-Asp(Pro-^DPro-Val)-NHCH2CH2CH2COOMe [Compound 23a]
KDAC Inhibition Activity KDAC8 (% inhibition) (recombinant human KDAC8): Not active
KDAC Inhibition Activity KDAC1 (% inhibition) (recombinant human KDAC1): Not active
KDAC Inhibition Activity KDAC6 (% inhibition) (recombinant human KDAC6): Not active
KDAC Inhibition Activity KDAC3 (% inhibition) (recombinant human KDAC3): 7%

Cyclo-Asp(Pro-^DPro-Val)-NHCH2CH2CH2OH [Compound 22a]
KDAC Inhibition Activity KDAC8 (% inhibition) (recombinant human KDAC8): Not active
KDAC Inhibition Activity KDAC1 (% inhibition) (recombinant human KDAC1): Not active
KDAC Inhibition Activity KDAC6 (% inhibition) (recombinant human KDAC6): Not active
KDAC Inhibition Activity KDAC3 (% inhibition) (recombinant human KDAC3): 7%

Cyclo-Asp(Pro-^DPro-Val)-NHCH2CH2CH2S(═O)2CH3 [Compound 21a]
KDAC Inhibition Activity KDAC8 (% inhibition) (recombinant human KDAC8): 23%
KDAC Inhibition Activity KDAC1 (% inhibition) (recombinant human KDAC1): Not active
KDAC Inhibition Activity KDAC6 (% inhibition) (recombinant human KDAC6): Not active
KDAC Inhibition Activity KDAC3 (% inhibition) (recombinant human KDAC3): Not active

Cyclo-Asp(Pro-^DPro-Val)-NHCH2CH2CH2S(═O)CH3 [Compound 20a]
KDAC Inhibition Activity KDAC8 (% inhibition) (recombinant human KDAC8): 19%
KDAC Inhibition Activity KDAC1 (% inhibition) (recombinant human KDAC1): Not active
KDAC Inhibition Activity KDAC6 (% inhibition) (recombinant human KDAC6): Not active
KDAC Inhibition Activity KDAC3 (% inhibition) (recombinant human KDAC3): Not active

Cyclo-Asp(Pro-^DPro-Val)-NHCH2CH2CH2SCH3 [Compound 19a]
KDAC Inhibition Activity KDAC8 (% inhibition) (recombinant human KDAC8): 25%
KDAC Inhibition Activity KDAC1 (% inhibition) (recombinant human KDAC1): 2%
KDAC Inhibition Activity KDAC6 (% inhibition) (recombinant human KDAC6): Not active
KDAC Inhibition Activity KDAC3 (% inhibition) (recombinant human KDAC3): Not active

Cyclo-Asp(Pro-^DPro-Val)-NHCH2CH2CH2SH [Compound 18a]
KDAC Inhibition Activity KDAC8 (% inhibition) (recombinant human KDAC8): 4%
KDAC Inhibition Activity KDAC1 (% inhibition) (recombinant human KDAC1): Not active
KDAC Inhibition Activity KDAC6 (% inhibition) (recombinant human KDAC6): 19%
KDAC Inhibition Activity KDAC3 (% inhibition) (recombinant human KDAC3): 1%

Cyclo-Asp(Pro-^DPro-Val)-NHCH2CH2SH [Compound 17a]
KDAC Inhibition Activity KDAC8 (% inhibition) (recombinant human KDAC8): 5%
KDAC Inhibition Activity KDAC1 (% inhibition) (recombinant human KDAC1): Not active
KDAC Inhibition Activity KDAC6 (% inhibition) (recombinant human KDAC6): 15%
KDAC Inhibition Activity KDAC3 (% inhibition) (recombinant human KDAC3): 2%

Cyclo-Asp(Pro-^DPro-Val)-NHCH2CH2S—SCH2CH2NH2 [Compound 26a]
KDAC Inhibition Activity KDAC8 (% inhibition) (recombinant human KDAC8): 10%
KDAC Inhibition Activity KDAC1 (% inhibition) (recombinant human KDAC1): 15%
KDAC Inhibition Activity KDAC6 (% inhibition) (recombinant human KDAC6): 10%
KDAC Inhibition Activity KDAC3 (% inhibition) (recombinant human KDAC3): 5%

Cyclo-Asp(Pro-^DPro-Val)-OBn [Compound 2a]
KDAC Inhibition Activity KDAC8 (% inhibition) (recombinant human KDAC8): 14%

Cyclo-Asp(Pro-^DPro-Val)-OH [Compound 4a]
KDAC Inhibition Activity KDAC3 (% inhibition) (recombinant human KDAC3): 24%

Cyclo-Asp(^DPro-Pro-Val)-OBn [Compound 1a]
KDAC Inhibition Activity KDAC8 (% inhibition) (recombinant human KDAC8): 9%
KDAC Inhibition Activity KDAC6 (% inhibition) (recombinant human KDAC6): 6%

Cyclo-DAsp(Pro-DPro-Val)-OH [Compound 4b]
KDAC Inhibition Activity KDAC8 (% inhibition) (recombinant human KDAC8): 4%
KDAC Inhibition Activity KDAC6 (% inhibition) (recombinant human KDAC6): 10%
KDAC Inhibition Activity KDAC3 (% inhibition) (recombinant human KDAC3): 5%

Cyclo-^DAsp(Pro-^DPro-Val)-OBn [Compound 2b]
KDAC Inhibition Activity KDAC1 (% inhibition) (recombinant human KDAC1): 1.5%
KDAC Inhibition Activity KDAC6 (% inhibition) (recombinant human KDAC6): 10%
KDAC Inhibition Activity KDAC3 (% inhibition) (recombinant human KDAC3): 1%

[Cyclo-Asp(Pro-^DPro-Val)-NHCH2CH2CH2S]2 [Compound 38a]
KDAC Inhibition Activity KDAC6 (% inhibition) (recombinant human KDAC6): 21%
KDAC Inhibition Activity KDAC3 (% inhibition) (recombinant human KDAC3): 10%

[Cyclo-Asp(Pro-^DPro-Val)-NHCH2CH2S]2 [Compound 36a]
KDAC Inhibition Activity KDAC8 (% inhibition) (recombinant human KDAC8): 2%

[Cyclo-Asp(^DPro-Pro-Val)-NHCH2CH2CH2S]2 [Compound 37a]
KDAC Inhibition Activity KDAC8 (% inhibition) (recombinant human KDAC8): 6%
KDAC Inhibition Activity KDAC6 (% inhibition) (recombinant human KDAC6): 9%

[Cyclo-Asp(^DPro-Pro-Val)-NHCH2CH2S]2 [Compound 35a]
KDAC Inhibition Activity KDAC3 (% inhibition) (recombinant human KDAC3): 2%

[Cyclo-DAsp(Pro-DPro-Val)-NHCH2CH2S]2 [Compound 36b]
KDAC Inhibition Activity KDAC8 (% inhibition) (recombinant human KDAC8): 2%
KDAC Inhibition Activity KDAC6 (% inhibition) (recombinant human KDAC6): 4%

[Cyclo-^DAsp(Pro-^DPro-Val)-NHCH2CH2CH2S]2 [Compound 38b]
KDAC Inhibition Activity KDAC8 (% inhibition) (recombinant human KDAC8): 3%
KDAC Inhibition Activity KDAC6 (% inhibition) (recombinant human KDAC6): 40%
KDAC Inhibition Activity KDAC3 (% inhibition) (recombinant human KDAC3): 19%

[Cyclo-^DAsp(^DPro-Pro-Val)-NHCH2CH2CH2S]2 [Compound 37b]
KDAC Inhibition Activity KDAC1 (% inhibition) (recombinant human KDAC1): 1%
KDAC Inhibition Activity KDAC6 (% inhibition) (recombinant human KDAC6): 8%
KDAC Inhibition Activity KDAC3 (% inhibition) (recombinant human KDAC3): 53%

[Cyclo-^DAsp(^DPro-Pro-Val)-NHCH2CH2S]2 [Compound 35b]
KDAC Inhibition Activity KDAC8 (% inhibition) (recombinant human KDAC8): 9%
KDAC Inhibition Activity KDAC6 (% inhibition) (recombinant human KDAC6): 6%
